Measured values as given in patent US20250282799A1, “SUBSTITUTED PYRIDO[4,3-d]PYRIMIDINES AS KRAS MODULATORS” (Alterome Therapeutics, Inc., priority 2023, published 2025).

Test system: KRAS G12V dependent lung adenocarcinoma cell line, NCI-H441
Assay: Cellular pERK (Thr202/Tyr204) FRET/HTRF assay
Assay type: cell-based
Details: Homo sapiens, NCI-H441, cellular pERK (Thr202/Tyr204) HTRF, NCI-H441 cells
Method in brief: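 Phospho-ERK1/2 (Thr202/Tyr204) quantified by two-antibody HTRF in lysed NCI-H441 cells. Cells seeded overnight, treated with test compounds for 1 hr at 37 °C against DMSO control, then lysed and detected at room temperature; IC50 obtained by curve fitting.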

Row | IC50 [nM] | Compound
1 | 50 to 500 | [2H]C([2H])(F)Oc1c(F)ccc2cccc(-c3ncc4c(N5CCCC[C@H]6[C@H](F)[C@H]65)nc(OC[C@]56CC(=C(F)F)CN5CCC65CC5)nc4c3F)c12 [Example 413, (R)-6′-(difluoromethylene)-7a′-(((8-fluoro-7-(7-fluoro-8-(fluoromethoxy-d2)naphthalen-1-yl)-4-((1S,7R,8S)-8-fluoro-2-azabicyclo[5.1.0]octan-2-yl)pyrido[4,3-d]pyrimidin-2-yl)oxy)methyl)hexahydrospiro [cyclopropane-1,1′-pyrrolizine]]
2 | < 50 | C#Cc1c(F)ccc2cc(N)cc(-c3ncc4c(N5CCOC[C@H]6[C@H](F)[C@H]65)nc(OC[C@]56C[C@@H](F)CN5CCC6=O)nc4c3F)c12 [Example 414, (6R,7aS)-7a-(((7-(3-amino-8-ethynyl-7-fluoronaphthalen-1-yl)-8-fluoro-4-((1S,7S,8S)-8-fluoro-5-oxa-2-azabicyclo[5.1.0]octan-2-yl)pyrido[4,3-d]pyrimidin-2-yl)oxy)methyl)-6-fluorohexahydro-1H-pyrrolizin-1-one]
3 | 500 to 10000 | [2H]C([2H])(Oc1nc(N2CCOC[C@H]3[C@H](F)[C@H]32)c2cc(C(F)(F)F)c(-c3cccc4ccccc34)c(F)c2n1)[C@@]12CCCN1C[C@H](F)C2 [Example 415, (1S,7S,8S)-8-fluoro-2-(8-fluoro-2-(((2R,7aS)-2-fluorotetrahydro-1H-pyrrolizin-7a(5H)-yl)methoxy-d2)-7-(naphthalen-1-yl)-6-(trifluoromethyl)quinazolin-4-yl)-5-oxa-2-azabicyclo[5.1.0]octane]
4 | < 50 | [2H]C([2H])(Oc1nc(N2CCCC[C@H]3[C@H](F)[C@H]32)c2cnc(-c3cc(N)cc4ccc(Cl)c(C#C)c34)c(F)c2n1)[C@@]12CCCN1[C@H](C)[C@H](F)C2 [Example 416, 6-Chloro-5-ethynyl-4-(8-fluoro-2-(((2R,3R,7aS)-2-fluoro-3-methyltetrahydro-1H-pyrrolizin-7a(5H)-yl)methoxy-d2)-4-((1S,7R,8S)-8-fluoro-2-azabicyclo[5.1.0]octan-2-yl)pyrido[4,3-d]pyrimidin-7-yl)naphthalen-2-amine]
5 | < 50 | [2H]C([2H])(Oc1nc(N2CCCC[C@H]3[C@H](F)[C@H]32)c2cnc(-c3cc(N)cc4ccc(C)c(C#C)c34)c(F)c2n1)[C@@]12CCCN1[C@H](C)[C@H](F)C2 [Example 417, 5-Ethynyl-4-(8-fluoro-2-(((2R,3R,7aS)-2-fluoro-3-methyltetrahydro-1H-pyrrolizin-7a(5H)-yl)methoxy-d2)-4-((1S,7R,8S)-8-fluoro-2-azabicyclo[5.1.0]octan-2-yl)pyrido[4,3-d]pyrimidin-7-yl)-6-methylnaphthalen-2-amine]
6 | < 50 | [2H]C([2H])(Oc1nc(N2CCOC[C@H]3[C@H](F)[C@H]32)c2cc(C#N)c(-c3cc(N)cc4ccc(F)c(C#C)c34)c(C)c2n1)[C@@]12CCCN1C[C@H](F)C2 [Example 422, 7-(3-amino-8-ethynyl-7-fluoronaphthalen-1-yl)-4-((1S,7S,8S)-8-fluoro-5-oxa-2-azabicyclo[5.1.0]octan-2-yl)-2-(((2R,7aS)-2-fluorotetrahydro-1H-pyrrolizin-7a(5H)-yl)methoxy-d2)-8-methylquinazoline-6-carbonitrile]
7 | < 50 | C#Cc1c(F)ccc2cccc(-c3ncc4c(N5CCCC[C@H]6[C@H](F)[C@H]65)nc(OC[C@]56CC(=C)CN5CCC65CC5)nc4c3F)c12 [Example 423, (R)-7a′-(((7-(8-Ethynyl-7-fluoronaphthalen-1-yl)-8-fluoro-4-((1S,7R,8S)-8-fluoro-2-azabicyclo[5.1.0]octan-2-yl)pyrido[4,3-d]pyrimidin-2-yl)oxy)methyl)-6′-methylenehexahydrospiro[cyclopropane-1,1′-pyrrolizine]]
8 | < 50 | C=C1CN2CCC3(CC3)[C@@]2(COc2nc(N3CCCC[C@H]4[C@H](F)[C@H]43)c3cnc(-c4cc(N)cc(Cl)c4C(F)(F)F)c(F)c3n2)C1 [Example 424, 3-chloro-5-(8-fluoro-4-((1S,7R,8S)-8-fluoro-2-azabicyclo[5.1.0]octan-2-yl)-2-(((R)-6′-methylenetetrahydrospiro[cyclopropane-1,1′-pyrrolizin]-7a′(5′H)-yl)methoxy)pyrido[4,3-d]pyrimidin-7-yl)-4-(trifluoromethyl)aniline]
9 | < 50 | C#Cc1c(F)ccc2cc(N)cc(-c3ncc4c(N5CCOC[C@H]6[C@H](F)[C@H]65)nc(OC[C@@]56CCCN5CC(=C)C6)nc4c3C)c12 [Example 425, 5-ethynyl-6-fluoro-4-(4-((1S,7S,8S)-8-fluoro-5-oxa-2-azabicyclo[5.1.0]octan-2-yl)-8-methyl-2-(((S)-2-methylenetetrahydro-1H-pyrrolizin-7a(5H)-yl)methoxy)pyrido[4,3-d]pyrimidin-7-yl)naphthalen-2-amine]
10 | < 50 | C#Cc1c(F)ccc2cc(N)cc(-c3ncc4c(N5CCOC[C@H]6[C@H](F)[C@H]65)nc(OC[C@@]56CCCN5C/C(=C/F)C6)nc4c3C)c12 [Example 426, 5-ethynyl-6-fluoro-4-(4-((1S,7S,8S)-8-fluoro-5-oxa-2-azabicyclo[5.1.0]octan-2-yl)-2-(((S,E)-2-(fluoromethylene)tetrahydro-1H-pyrrolizin-7a(5H)-yl)methoxy)-8-methylpyrido[4,3-d]pyrimidin-7-yl)naphthalen-2-amine]
11 | < 50 | C#Cc1c(F)ccc2cc(N)cc(-c3ncc4c(N5CCOC[C@H]6[C@H](F)[C@H]65)nc(OC[C@@]56CCCN5C/C(=C\F)C6)nc4c3C)c12 [Example 427, 5-ethynyl-6-fluoro-4-(4-((1S,7S,8S)-8-fluoro-5-oxa-2-azabicyclo[5.1.0]octan-2-yl)-2-(((S,Z)-2-(fluoromethylene)tetrahydro-1H-pyrrolizin-7a(5H)-yl)methoxy)-8-methylpyrido[4,3-d]pyrimidin-7-yl)naphthalen-2-amine]
12 | < 50 | C#Cc1c(F)ccc2cc(N)cc(-c3ncc4c(N5CCOC[C@H]6[C@H](F)[C@H]65)nc(OC[C@@]56CCCN5CC(=C(F)F)C6)nc4c3C)c12 [Example 428, 4-(2-(((S)-2-(difluoromethylene)tetrahydro-1H-pyrrolizin-7a(5H)-yl)methoxy)-4-((1S,7S,8S)-8-fluoro-5-oxa-2-azabicyclo[5.1.0]octan-2-yl)-8-methylpyrido[4,3-d]pyrimidin-7-yl)-5-ethynyl-6-fluoronaphthalen-2-amine]
13 | < 50 | C#Cc1c(F)ccc2cc(N)cc(-c3ncc4c(N5CCOC[C@H]6[C@H](F)[C@H]65)nc(OC[C@]56CC(=C)CN5CCC65CC5)nc4c3C)c12 [Example 429, 5-ethynyl-6-fluoro-4-(4-((1S,7S,8S)-8-fluoro-5-oxa-2-azabicyclo[5.1.0]octan-2-yl)-8-methyl-2-(((R)-6′-methylenetetrahydrospiro[cyclopropane-1,1′-pyrrolizin]-7a′(5′H)-yl)methoxy)pyrido[4,3-d]pyrimidin-7-yl)naphthalen-2-amine]
